According to paper PMC9655037, “Alternation of Organ-Specific Exposure in LPS-Induced Pneumonia Mice after the Inhalation of Tetrandrine Is Governed by Metabolizing Enzyme Suppression and Lysosomal Trapping” (International Journal of Molecular Sciences, 2022):

Columns and labels:
CYP3A = conditions: cited from earlier work
OATP1B1 = biological target: T1, OATP1B1 (Homo sapiens, UniProt Q9Y6L6); conditions: 5 min, 5 µM
T1 sequence (Q9Y6L6 1-691): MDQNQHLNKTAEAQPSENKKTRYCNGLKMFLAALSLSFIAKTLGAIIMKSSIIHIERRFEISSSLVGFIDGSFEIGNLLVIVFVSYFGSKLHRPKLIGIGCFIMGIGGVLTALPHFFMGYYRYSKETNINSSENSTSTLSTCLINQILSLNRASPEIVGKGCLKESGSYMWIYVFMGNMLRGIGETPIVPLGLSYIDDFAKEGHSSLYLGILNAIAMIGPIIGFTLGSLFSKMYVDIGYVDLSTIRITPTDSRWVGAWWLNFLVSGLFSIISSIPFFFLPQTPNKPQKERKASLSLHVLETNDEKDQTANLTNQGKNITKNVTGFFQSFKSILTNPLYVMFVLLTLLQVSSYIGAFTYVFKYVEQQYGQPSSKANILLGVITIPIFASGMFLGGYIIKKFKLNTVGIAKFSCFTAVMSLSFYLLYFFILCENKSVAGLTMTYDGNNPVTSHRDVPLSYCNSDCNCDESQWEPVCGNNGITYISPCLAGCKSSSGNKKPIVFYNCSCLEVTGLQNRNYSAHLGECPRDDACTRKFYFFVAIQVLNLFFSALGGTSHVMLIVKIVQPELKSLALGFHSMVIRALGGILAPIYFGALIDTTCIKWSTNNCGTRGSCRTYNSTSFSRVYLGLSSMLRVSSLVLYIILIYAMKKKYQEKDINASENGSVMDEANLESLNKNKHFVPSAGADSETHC
Protocol: Expressing OATP1B1/OATP1B3 or MOCK HEK293 cells were utilized to evaluate whether TET is a substrate of these two SLC transporters. Cell culture was performed as mentioned above. Cells were seeded on 96-well plates at the density of 0.8 × 10^5 cells/well. The culture medium was replaced with a medium containing 5 mM sodium butyrate for 24 h before the transport study to enhance the expression of transporters. For the transport assay, the DMEM media were removed and the cells were washed with pre-warmed Krebs–Henseleit buffer twice (0.1 mL/well). The second washing buffer was kept in the wells and the plate was incubated at 37 °C for 5 min before the uptake assay was initiated. […] The incubation solution was removed and the cells were washed with ice-cold transportation buffer three times (0.1 mL/well). […]
In the uptake study of TET by OATP1B1 and OATP1B3 expressing the HEK293 cell line, the uptake clearance (U) of the substrate was calculated according to Equation (5), the transporter-mediated uptake ratio (UR) was calculated by dividing the uptake clearance from transporter-expressing cells to that from the mock cells according to Equation (6), and the inhibition ratio (IR) was calculated according to Equation (7), where p represents the protein content and T is the duration of the incubation time. […]

**Q.** What does the source list for COc1ccc2cc1Oc1ccc(cc1)C[C@H]1c3cc(c(OC)cc3CCN1C)Oc1c(OC)c(OC)cc3c1[C@H](C2)N(C)CC3 [TET, Tetrandrine]?
**A.** fm (CYP3A, major isoform toward TET) (CYP3A): > 90%; Inhibition Ratio (OATP1B1): 11.1; Uptake Ratio (OATP1B1): 1.2
